From ChEMBL document CHEMBL1201862, “PubChem BioAssay data set” (2004)
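Growth conditions: 96-well plates. Treatment: test compound, 48 hours, 5 concentrations. Analysis: linear interpolation between bracketing concentrations; unreached endpoints set to highest concentration. GI50 is the concentration that inhibits growth by half.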 Active and inactive are the calls of the source. No stated cut-off is given here; in the data, active = GI50 up to about 1.1 µM and inactive = higher.

Legend:
Test in all cases: growth of human tumour cells (NCI), 48 h
[1] = test system: 786-0
[2] = test system: A498
[3] = test system: ACHN
[4] = test system: BT-549
[5] = test system: CAKI-1
[6] = test system: CCRF-CEM
[7] = test system: COLO 205
[8] = test system: DU-145
[9] = test system: EKVX
[10] = test system: HCT-116
[11] = test system: HCT-15
[12] = test system: HL-60
[13] = test system: HOP-62
[14] = test system: HT-29
[15] = test system: Hs-578T
[16] = test system: IGROV-1
[17] = test system: K562
[18] = test system: KM12
[19] = test system: LOX IMVI
[20] = test system: M14
[21] = test system: MCF7
[22] = test system: MDA-MB-231
[23] = test system: MDA-MB-435
[24] = test system: MDA-N
[25] = test system: MOLT-4
[26] = test system: Malme-3M
[27] = test system: NCI-H226
[28] = test system: NCI-H23
[29] = test system: NCI-H460
[30] = test system: NCI/ADR-RES
[31] = test system: OVCAR-3
[32] = test system: OVCAR-5
[33] = test system: OVCAR-8
[34] = test system: PC-3
[35] = test system: RPMI-8226
[36] = test system: RXF 393
[37] = test system: SF-268
[38] = test system: SF-295
[39] = test system: SF-539
[40] = test system: SK-MEL-28
[41] = test system: SK-MEL-2
[42] = test system: SK-MEL-5
[43] = test system: SK-OV-3
[44] = test system: SN12C
[45] = test system: SNB-19
[46] = test system: SNB-75
[47] = test system: SR
[48] = test system: SW-620
[49] = test system: TK-10
[50] = test system: U-251
[51] = test system: UACC-257
[52] = test system: UACC-62
[53] = test system: UO-31
[54] = test system: A549
[55] = test system: HCC 2998
[56] = test system: HOP-92
[57] = test system: NCI-H522
[58] = test system: OVCAR-4

Question: For `Fc1ccc(/C(=N/Cc2ccccc2)N2CCOCC2)cc1`, which GI50 [1] is on record?
Answer: The GI50 was > 100 µM (inactive).

Question: What about the GI50 [2] of the same compound?
Answer: Its GI50 is > 100 µM (inactive).

Question: And the GI50 [3]?
Answer: Its GI50 is > 100 µM (inactive).

Question: What about the GI50 [4] of the same compound?
Answer: Its GI50 is > 100 µM (inactive).

Question: What about the GI50 [5] of the same compound?
Answer: The GI50 was > 100 µM (inactive).

Question: What about the GI50 [6] of the same compound?
Answer: Its GI50 is > 100 µM (inactive).

Question: What about the GI50 [7] of the same compound?
Answer: The GI50 was > 100 µM (inactive).

Question: What about the GI50 [8] of the same compound?
Answer: Its GI50 is > 100 µM (inactive).

Question: And the GI50 [9]?
Answer: Its GI50 is > 100 µM (inactive).

Question: What about the GI50 [10] of the same compound?
Answer: Its GI50 is > 100 µM (inactive).

Question: And the GI50 [11]?
Answer: The GI50 was > 100 µM.

Question: And the GI50 [12]?
Answer: The GI50 was > 100 µM (inactive).

Question: What about the GI50 [13] of the same compound?
Answer: The GI50 was > 100 µM (inactive).

Question: And the GI50 [14]?
Answer: The GI50 was > 100 µM (inactive).

Question: And the GI50 [15]?
Answer: The GI50 was > 100 µM (inactive).

Question: What about the GI50 [16] of the same compound?
Answer: The GI50 was > 100 µM (inactive).

Question: What about the GI50 [17] of the same compound?
Answer: Its GI50 is > 100 µM (inactive).

Question: What about the GI50 [18] of the same compound?
Answer: Its GI50 is > 100 µM (inactive).

Question: And the GI50 [19]?
Answer: The GI50 was > 100 µM (inactive).

Question: And the GI50 [20]?
Answer: Its GI50 is > 100 µM (inactive).

Question: And the GI50 [21]?
Answer: Its GI50 is > 100 µM (inactive).

Question: What about the GI50 [22] of the same compound?
Answer: Its GI50 is > 100 µM (inactive).

Question: What about the GI50 [23] of the same compound?
Answer: The GI50 was > 100 µM (inactive).

Question: What about the GI50 [24] of the same compound?
Answer: The GI50 was > 100 µM (inactive).

Question: What about the GI50 [25] of the same compound?
Answer: The GI50 was > 100 µM (inactive).

Question: What about the GI50 [26] of the same compound?
Answer: The GI50 was > 100 µM (inactive).

Question: What about the GI50 [27] of the same compound?
Answer: The GI50 was > 100 µM (inactive).

Question: And the GI50 [28]?
Answer: Its GI50 is > 100 µM (inactive).

Question: And the GI50 [29]?
Answer: Its GI50 is > 100 µM (inactive).

Question: And the GI50 [30]?
Answer: Its GI50 is > 100 µM (inactive).

Question: What about the GI50 [31] of the same compound?
Answer: The GI50 was > 100 µM (inactive).

Question: What about the GI50 [32] of the same compound?
Answer: Its GI50 is > 100 µM (inactive).

Question: And the GI50 [33]?
Answer: Its GI50 is > 100 µM (inactive).

Question: And the GI50 [34]?
Answer: The GI50 was > 100 µM (inactive).

Question: What about the GI50 [35] of the same compound?
Answer: The GI50 was > 100 µM (inactive).

Question: And the GI50 [36]?
Answer: The GI50 was > 100 µM (inactive).

Question: And the GI50 [37]?
Answer: Its GI50 is > 100 µM (inactive).

Question: What about the GI50 [38] of the same compound?
Answer: Its GI50 is > 100 µM (inactive).

Question: And the GI50 [39]?
Answer: Its GI50 is > 100 µM (inactive).

Question: What about the GI50 [40] of the same compound?
Answer: Its GI50 is > 100 µM (inactive).

Question: What about the GI50 [41] of the same compound?
Answer: The GI50 was > 100 µM (inactive).

Question: And the GI50 [42]?
Answer: The GI50 was > 100 µM (inactive).

Question: What about the GI50 [43] of the same compound?
Answer: Its GI50 is > 100 µM (inactive).

Question: And the GI50 [44]?
Answer: The GI50 was > 100 µM (inactive).

Question: And the GI50 [45]?
Answer: Its GI50 is > 100 µM (inactive).

Question: What about the GI50 [46] of the same compound?
Answer: Its GI50 is > 100 µM (inactive).

Question: What about the GI50 [47] of the same compound?
Answer: The GI50 was > 100 µM (inactive).

Question: And the GI50 [48]?
Answer: The GI50 was > 100 µM (inactive).

Question: What about the GI50 [49] of the same compound?
Answer: The GI50 was > 100 µM (inactive).

Question: And the GI50 [50]?
Answer: Its GI50 is > 100 µM (inactive).

Question: And the GI50 [51]?
Answer: Its GI50 is > 100 µM (inactive).

Question: And the GI50 [52]?
Answer: The GI50 was > 100 µM (inactive).

Question: What about the GI50 [53] of the same compound?
Answer: Its GI50 is 67.5 µM (inactive).

Question: How did the GI50 [1] turn out when `O=C1C(Cl)=C(Nc2ccc(S(=O)(=O)O)cc2)C(=O)c2ccccc21` was run?
Answer: Its GI50 is 27.2 µM (inactive).

Question: And the GI50 [54]?
Answer: Its GI50 is 21.9 µM (inactive).

Question: What about the GI50 [3] of the same compound?
Answer: Its GI50 is 22 µM (inactive).

Question: What about the GI50 [4] of the same compound?
Answer: The GI50 was 76.2 µM (inactive).

Question: And the GI50 [5]?
Answer: Its GI50 is 39.5 µM (inactive).

Question: And the GI50 [6]?
Answer: Its GI50 is 26.7 µM (inactive).

Question: And the GI50 [7]?
Answer: The GI50 was 17.4 µM (inactive).

Question: What about the GI50 [8] of the same compound?
Answer: Its GI50 is 16.3 µM (inactive).

Question: And the GI50 [9]?
Answer: Its GI50 is 15.7 µM (inactive).

Question: What about the GI50 [55] of the same compound?
Answer: The GI50 was 95.9 µM (inactive).

Question: What about the GI50 [10] of the same compound?
Answer: Its GI50 is 52.6 µM (inactive).

Question: What about the GI50 [11] of the same compound?
Answer: Its GI50 is 35.2 µM.

Question: What about the GI50 [12] of the same compound?
Answer: Its GI50 is 26.9 µM (inactive).

Question: And the GI50 [13]?
Answer: Its GI50 is 36.2 µM (inactive).

Question: And the GI50 [56]?
Answer: The GI50 was 17.3 µM (inactive).

Question: And the GI50 [14]?
Answer: Its GI50 is > 100 µM (inactive).

Question: And the GI50 [15]?
Answer: Its GI50 is 24 µM (inactive).

Question: And the GI50 [16]?
Answer: The GI50 was 20 µM (inactive).

Question: And the GI50 [17]?
Answer: The GI50 was 28.2 µM (inactive).

Question: And the GI50 [18]?
Answer: The GI50 was 22 µM (inactive).

Question: What about the GI50 [19] of the same compound?
Answer: The GI50 was 30.3 µM (inactive).

Question: And the GI50 [20]?
Answer: Its GI50 is 21.4 µM (inactive).

Question: And the GI50 [21]?
Answer: The GI50 was 20.9 µM (inactive).

Question: What about the GI50 [22] of the same compound?
Answer: The GI50 was 60.7 µM (inactive).

Question: What about the GI50 [23] of the same compound?
Answer: Its GI50 is 21.7 µM (inactive).

Question: And the GI50 [25]?
Answer: The GI50 was 42.1 µM (inactive).

Question: And the GI50 [26]?
Answer: Its GI50 is 20.1 µM (inactive).

Question: What about the GI50 [27] of the same compound?
Answer: Its GI50 is 34.4 µM (inactive).

Question: And the GI50 [28]?
Answer: The GI50 was 37.7 µM (inactive).

Question: What about the GI50 [29] of the same compound?
Answer: Its GI50 is 33.6 µM (inactive).

Question: What about the GI50 [57] of the same compound?
Answer: The GI50 was 18.2 µM (inactive).

Question: And the GI50 [30]?
Answer: The GI50 was > 100 µM (inactive).

Question: What about the GI50 [31] of the same compound?
Answer: The GI50 was 20.8 µM (inactive).

Question: And the GI50 [58]?
Answer: The GI50 was 38.5 µM (inactive).

Question: And the GI50 [32]?
Answer: The GI50 was > 100 µM (inactive).

Question: What about the GI50 [33] of the same compound?
Answer: The GI50 was 30.1 µM (inactive).

Question: And the GI50 [34]?
Answer: Its GI50 is 23 µM (inactive).

Question: What about the GI50 [35] of the same compound?
Answer: Its GI50 is 24.7 µM (inactive).

Question: And the GI50 [36]?
Answer: Its GI50 is 19.7 µM (inactive).

Question: What about the GI50 [37] of the same compound?
Answer: Its GI50 is 39.3 µM (inactive).

Question: And the GI50 [38]?
Answer: The GI50 was 33.6 µM (inactive).

Question: What about the GI50 [39] of the same compound?
Answer: The GI50 was 19.9 µM (inactive).

Question: And the GI50 [40]?
Answer: The GI50 was 32.1 µM (inactive).

Question: What about the GI50 [41] of the same compound?
Answer: Its GI50 is 23.7 µM (inactive).

Question: What about the GI50 [42] of the same compound?
Answer: Its GI50 is 13.4 µM (inactive).

Question: And the GI50 [45]?
Answer: Its GI50 is 24.6 µM (inactive).

Question: And the GI50 [46]?
Answer: The GI50 was 67.8 µM (inactive).

Question: What about the GI50 [47] of the same compound?
Answer: Its GI50 is 32.6 µM (inactive).

Question: What about the GI50 [48] of the same compound?
Answer: Its GI50 is 22 µM (inactive).

Question: What about the GI50 [49] of the same compound?
Answer: Its GI50 is 22.1 µM (inactive).

Question: What about the GI50 [50] of the same compound?
Answer: Its GI50 is 36.8 µM (inactive).

Question: What about the GI50 [51] of the same compound?
Answer: The GI50 was 40 µM (inactive).

Question: And the GI50 [52]?
Answer: Its GI50 is 64.4 µM (inactive).

Question: And the GI50 [53]?
Answer: The GI50 was 15 µM (inactive).
